Assays:
human RARα = target: T1, human RARα (Homo sapiens, UniProt P10276); assay: Competition with [3H]-ATRA binding, nuclear extracts of Sf21 cells expressing RARα; details: nuclear extracts of baculovirus-infected Sf21 cells, read-out: Binding affinity ED50, RARα
T1 construct: made in house
T1 sequence (P10276 1-462): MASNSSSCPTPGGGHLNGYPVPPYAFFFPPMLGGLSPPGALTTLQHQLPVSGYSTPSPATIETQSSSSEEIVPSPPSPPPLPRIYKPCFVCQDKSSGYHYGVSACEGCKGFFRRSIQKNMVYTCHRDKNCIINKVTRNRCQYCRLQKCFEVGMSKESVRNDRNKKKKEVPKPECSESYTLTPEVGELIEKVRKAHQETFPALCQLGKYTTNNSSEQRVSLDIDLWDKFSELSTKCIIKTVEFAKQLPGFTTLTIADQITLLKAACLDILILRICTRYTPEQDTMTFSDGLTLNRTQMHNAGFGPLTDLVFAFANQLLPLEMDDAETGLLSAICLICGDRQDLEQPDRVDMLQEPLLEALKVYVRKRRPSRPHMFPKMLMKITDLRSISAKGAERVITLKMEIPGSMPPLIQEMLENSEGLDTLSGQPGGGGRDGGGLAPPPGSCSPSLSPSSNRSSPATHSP

CD34^+vehuHSCs = assay: Week-five CAFC and LTC-IC assays of cultured CD34+ve huHSC; assay type: cell-based, human; details: 100 nM, cells cultured 2 weeks, two donors
Experimental: Assays for week-five cobblestone area forming cells (CAFC), long-term culture-initiating cells (LTC-IC), and colony-forming units (CFU) were performed at the Stem Cell Laboratory at the National Blood Service Stem Cell Laboratory using standard procedures and methods, as described by other workers (de […] and Ploemacher [2001]; Denning-Kendall et al. [1996]; Nicol et al. [1996]). CFU assays were performed using Methocult^TM GF H8444 (StemCell Technologies) and in 35 mm petri dishes. The presence of CAFC was scored as the presence of 12 or more closely associated and small cells that were embedded in the MS5 cell feeder layer and blind by an experienced reader. The nature of CFUs, as to colony-forming unit-granulocyte/erythroid/megakaryocyte/monocyte (CFU-GEMM), colony-forming unit-granulocyte/macrophage (CFU-GM), burst-forming unit-erythroid (BFU-E), and colony-forming unit-erythroid (CFU-E), was scored blind at the service by a person who routinely reads colony assays and is accredited. The nature of colonies was confirmed by sampling colonies and staining cytocentrifuged preparations of cells.

NB-4 cells = assay: Differentiation of NB-4 cells (CD11b/CD14 flow cytometry); assay type: cell-based, human; details: 96 h
Experimental: (§1) NB-4 and KG1 cells were obtained from the German Resource Center for Biological Material (DSMZ GmbH, Braunschweig, Germany). The cells were grown in RPMI-1640 medium supplemented with 10 % fetal bovine serum (FBS), 100 U/ml penicillin, and 100 µg/ml streptomycin (Sigma, St Louis, MO, USA). Cells were grown at 37 °C in 5 % CO2.
(§2) The expression of differentiation markers at the cell surface was determined by flow cytometry. Differentiation of NB-4 and KG1 cells was measured by staining using the monoclonal antibodies CD11b-FITC and CD14-PE and appropriately labeled isotype controls (all from ImmunoTools, Friesoythe, Germany). Differentiation of human CD34^+ve cells was measured by triple-color staining using various cocktails of phycoerythrin-, fluorescein isothyocyanate-, and PerCP-monoclonal antibodies (from Becton–Dickinson, San Jose, CA, USA). The markers used to identify cell populations were as follows: CD45^+ve leukocytes; CD34^+ve/CD133^+ve HSCs; CD33^+ve/CD13^+ve immature myeloid; CD117^+ve myeloblasts and promyelocytes; CD11b^+ve/CD15^+ve mature myeloid; CD11b^+ve/CD65^+ve neutrophils; CD11b^+ve/CD14^+ve monocytes; glycophorin^+ve A erythroid cells; CD61^+ve megakaryoblasts and platelets; CD2^+ve/CD5^+ve/CD7^+ve T cells and NK cells; CD56^+ve NK cells; CD19^+ve/CD20^+ve B cells; and CD10^+ve B lymphocyte progenitors; and present on mature neutrophils and DR^+ve progenitors and present on mature monocytes. The cells were stained with 1 µl of the fluorescently labeled antibody (or the appropriate control immunoglobulin) for 1 h on ice. Next, they were washed with ice-cold phosphate-buffered saline (PBS) and suspended in 0.5 ml PBS supplemented with 0.1 % bovine serum albumin (Sigma, St Louis, MO, USA) prior to analysis on FACS Calibur flow cytometer (Becton–Dickinson, San Jose, CA, USA). The acquisition parameters were set for an isotype control. Cells were analyzed using a FACSCalibur, and data analysis was performed using the CellQuest Pro software (Becton–Dickinson, San Jose, CA, USA).

[1] = system: lineage^−ve/CD133^+ve/CD34^+vehuHSC; assay: Ex vivo expansion of lineage-ve/CD133+ve/CD34+ve huHSC; assay type: cell-based, human
From the text: The cells used were CD34^+ve cells purified from the blood of normal human adult donors and post-mobilization of stem cells to the blood. Cells obtained and purified in this manner are used routinely by the National Blood Service Stem Cell Laboratory in Birmingham for bone marrow transplantation. Ethics approval for the use of adult human blood-mobilized stem cells (CD34^+vehuHSC) was from the West Midlands Research Ethics Committee. Informed consent was obtained by the regional National Blood Service Stem Cell Laboratory in Birmingham. CD34^+ve cells were purified to 99 % CD34^+ve, 97 % CD133^+ve, >99 % lineage^−ve (n = 15) using an anti-CD34 monoclonal antibody, immunomagnetic beads, and a CliniMACS magnetic separator. Purified cells were plated at 5 × 10^5 cells/ml in microtiter wells in 200 μl of either RPMI-1640 medium (R and D Systems, Abingdon, UK) or HPGM^TM hematopoietic growth medium (Lonza, UK) containing either 10 % FBS or 10 % human serum, antibiotics (100 U/ml penicillin and 100 μg/ml streptomycin) and stem cell factor (SCF), interleukin (IL)-3, and granulocyte-colony stimulating factor (G-CSF) (all from R and D Systems Abingdon, UK) as stated in the results. Cultures were fed every 2–3 days (with fresh compound), split into microtiter wells, and then expanded into 2 ml Costar wells to maintain a cell density of between 2.5 and 10 × 10^5 cells/ml. Cells were grown at 37 °C in 5 % CO2. […]
The expression of differentiation markers at the cell surface was determined by flow cytometry. Differentiation of NB-4 and KG1 cells was measured by staining using the monoclonal antibodies CD11b-FITC and CD14-PE and appropriately labeled isotype controls (all from ImmunoTools, Friesoythe, Germany). Differentiation of human CD34^+ve cells was measured by triple-color staining using various cocktails of phycoerythrin-, fluorescein isothyocyanate-, and PerCP-monoclonal antibodies (from Becton–Dickinson, San Jose, CA, USA). […] Cells were analyzed using a FACSCalibur, and data analysis was performed using the CellQuest Pro software (Becton–Dickinson, San Jose, CA, USA).

KG1 cells = assay: Differentiation of KG1 cells (CD11b/CD14 flow cytometry); assay type: cell-based, human; details: 96 h
Experimental: as §1, §2

CD34^+vehuHSC = assay: Cell production and lifespan of CD34+ve huHSC-initiated cultures; assay type: cell-based, human
From the text: The cells used were CD34^+ve cells purified from the blood of normal human adult donors and post-mobilization of stem cells to the blood. Cells obtained and purified in this manner are used routinely by the National Blood Service Stem Cell Laboratory in Birmingham for bone marrow transplantation. Ethics approval for the use of adult human blood-mobilized stem cells (CD34^+vehuHSC) was from the West Midlands Research Ethics Committee. Informed consent was obtained by the regional National Blood Service Stem Cell Laboratory in Birmingham. CD34^+ve cells were purified to 99 % CD34^+ve, 97 % CD133^+ve, >99 % lineage^−ve (n = 15) using an anti-CD34 monoclonal antibody, immunomagnetic beads, and a CliniMACS magnetic separator. Purified cells were plated at 5 × 10^5 cells/ml in microtiter wells in 200 μl of either RPMI-1640 medium (R and D Systems, Abingdon, UK) or HPGM^TM hematopoietic growth medium (Lonza, UK) containing either 10 % FBS or 10 % human serum, antibiotics (100 U/ml penicillin and 100 μg/ml streptomycin) and stem cell factor (SCF), interleukin (IL)-3, and granulocyte-colony stimulating factor (G-CSF) (all from R and D Systems Abingdon, UK) as stated in the results. Cultures were fed every 2–3 days (with fresh compound), split into microtiter wells, and then expanded into 2 ml Costar wells to maintain a cell density of between 2.5 and 10 × 10^5 cells/ml. Cells were grown at 37 °C in 5 % CO2. Viable cells were enumerated by phase contrast microscopy (400× magnification).
as §2

`CCc1ccc(C2=CC(C)(C)Sc3ccc(C#Cc4ccc(C(=O)O)cc4)cc32)cc1` [AGN194310] was tested, and the IC50 (human RARα) was 4.3 nM, the “presence of week-five CAFC and LTC-IC” value (CD34^+vehuHSCs) was “only present in pan-RAR-antagonized wells” and the “effect on differentiation of NB-4 cells” value (NB-4 cells; 100 nM with 10 nM 1,25D, compared with 1,25D alone) was “did not have an appreciable effect”. For the same compound, the “effect on differentiation of NB-4 cells” value (NB-4 cells; 100 nM, used alone) was “no effect”, the “level of expansion of lineage−ve/CD133+ve/CD34+ve huHSC” value ([1]; 100 nM, day 30, HPGM, 10 % human serum, 100 ng/ml SCF, mean of seven donors, control ~eightfold) was ~ 18 fold and the “expansion of lineage−ve/CD133+ve/CD34+ve cells” value ([1]; all 15 donors, control 8–10-fold) was “around 20 fold”. The “effect on differentiation of KG1 cells” value (KG1 cells; 100 nM together with 10 nM 1,25D) was “no effect”, the “effect on differentiation of KG1 cells” value (KG1 cells; 100 nM, used alone) was “no effect” and the “cells produced versus control cultures” value (CD34^+vehuHSC; 10 nM, by day 20, 10 % FBS, SCF, IL-3) was “around fourfold more cells”. For the same compound, the “time for which cultures were maintained” value (CD34^+vehuHSC; 10 nM, 10 % FBS, SCF, IL-3, control cultures expire by day 30) was ≤ 55 days, the “kinetic of cell production compared with 10 nM” value (CD34^+vehuHSC; 100 nM, data not shown) was “almost identical kinetic” and the “effect on rate of myeloid cell differentiation” value (CD34^+vehuHSC; CD34+ve huHSC cultures) was “did not slow down myeloid cell differentiation”. For the same compound, the “prolonged lifespan of cultures” value (CD34^+vehuHSC; human HSCs supplemented with stem cell factor ± interleukin 3, abstract) was “up to 55 days”.

Reference: paper PMC5274652, “Antagonizing Retinoic Acid Receptors Increases Myeloid Cell Production by Cultured Human Hematopoietic Stem Cells” (Archivum Immunologiae et Therapiae Experimentalis, 2016)
